The term IC50 denotes the concentration at which inhibition is half-maximal. In general, EC50 refers to the midpoint of the concentration-response curve.

Active and inactive are the calls of the source. A value given as a limit tells only on which side of the number the result lay.

The target in assay [1] is T1, Voltage-gated N-type calcium channel alpha-1B subunit/Amyloid beta A4 precursor protein-binding family A member 1 (Homo sapiens, UniProt Q00975+Q02410). Format: protein assay.
The target in assay [2] is T1, Voltage-gated N-type calcium channel alpha-1B subunit/Amyloid beta A4 precursor protein-binding family A member 1. Type of assay: protein assay. The source holds these as a separate data set.
Assay [3] concerns the target Protein-tyrosine kinase 2-beta (Homo sapiens, UniProt Q14289).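 Also: potency of inhibitors of PYK2 kinase phosphorylation of poly-GT substrate.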
Assay [4] deals with Photoreceptor-specific nuclear receptor (Homo sapiens, UniProt Q9Y5X4). Format: functional.
Sequence of Photoreceptor-specific nuclear receptor (Q9Y5X4 whole entry): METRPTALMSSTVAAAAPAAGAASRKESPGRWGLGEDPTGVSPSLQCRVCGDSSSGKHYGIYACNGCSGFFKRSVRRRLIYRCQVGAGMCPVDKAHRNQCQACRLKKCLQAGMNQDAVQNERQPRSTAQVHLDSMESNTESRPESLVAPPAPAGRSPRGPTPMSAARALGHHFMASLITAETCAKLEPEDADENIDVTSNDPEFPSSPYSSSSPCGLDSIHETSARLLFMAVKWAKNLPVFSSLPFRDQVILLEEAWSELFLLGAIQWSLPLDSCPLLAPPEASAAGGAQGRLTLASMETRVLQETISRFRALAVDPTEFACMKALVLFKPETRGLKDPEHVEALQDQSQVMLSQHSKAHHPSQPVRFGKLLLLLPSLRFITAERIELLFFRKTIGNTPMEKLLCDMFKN
The target in assay [5] is Genome polyprotein (Hepatitis C virus, UniProt Q2Q167). Briefly: disruption of hepatitis C core self-association – biochemical, TR-FRET, dose response (AID 2159).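 Also: blocks dimerization of HCV core protein measured by TR-FRET between tagged core106 pairs.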 The arrangement: species or system Hepacivirus hominis. (In TR-FRET formats the signal depends on donor and acceptor labels being close together.)
Sequence of Genome polyprotein (Q2Q167 whole entry): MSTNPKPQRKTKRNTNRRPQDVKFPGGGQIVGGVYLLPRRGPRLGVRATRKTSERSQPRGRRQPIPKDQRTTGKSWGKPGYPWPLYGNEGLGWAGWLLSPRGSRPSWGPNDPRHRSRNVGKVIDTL
For assay [6], the target named is Peroxisome proliferator-activated receptor gamma/Nuclear receptor corepressor 2 (Homo sapiens, UniProt P37231+Q9Y618). Type of assay: functional.
In assay [7] the target is T2, Neuropeptide Y receptor type 1 (Homo sapiens, UniProt P25929).
T2 sequence (P25929 whole entry): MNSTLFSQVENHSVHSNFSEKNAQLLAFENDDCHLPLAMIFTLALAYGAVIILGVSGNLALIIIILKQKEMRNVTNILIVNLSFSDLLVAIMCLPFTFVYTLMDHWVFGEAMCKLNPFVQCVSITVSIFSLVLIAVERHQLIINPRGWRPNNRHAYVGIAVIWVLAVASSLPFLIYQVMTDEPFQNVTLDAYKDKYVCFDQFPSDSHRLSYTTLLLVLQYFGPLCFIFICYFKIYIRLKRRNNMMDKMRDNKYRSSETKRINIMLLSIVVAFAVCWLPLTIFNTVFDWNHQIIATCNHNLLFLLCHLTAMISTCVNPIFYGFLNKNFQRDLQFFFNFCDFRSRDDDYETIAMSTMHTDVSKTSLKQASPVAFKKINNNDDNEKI
Briefly: Fluorescence-based dose response cell-based high-throughput screening assay for agonists of NPY-Y1. [Related pubchem assays: 1697 (Screening assay (NPY-Y1 agonists).), 1359 (Screening assay (NPY-Y2 potentiators or agonists).), 1304 (Screening assay (NPY-Y1 potentiators or agonists).), 1704 (Screening assay (CNGC inhibitors).), 1791 (Summary AID.)]. Type of assay: functional.

The target in assay [8] is T3, Neuropeptide Y receptor type 2 (Homo sapiens, UniProt P49146).
T3 sequence (P49146 whole entry): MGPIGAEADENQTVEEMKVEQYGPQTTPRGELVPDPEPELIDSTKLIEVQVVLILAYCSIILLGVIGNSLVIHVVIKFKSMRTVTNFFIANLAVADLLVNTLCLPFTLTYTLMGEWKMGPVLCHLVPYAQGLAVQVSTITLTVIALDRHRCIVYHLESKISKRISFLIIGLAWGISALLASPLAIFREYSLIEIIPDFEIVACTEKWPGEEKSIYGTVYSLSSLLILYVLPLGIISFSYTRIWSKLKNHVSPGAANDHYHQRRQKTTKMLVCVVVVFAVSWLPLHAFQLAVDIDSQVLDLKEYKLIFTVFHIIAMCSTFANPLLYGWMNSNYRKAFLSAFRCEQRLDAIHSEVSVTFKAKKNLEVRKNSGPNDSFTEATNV
Kind of assay: Fluorescence-based counterscreen for agonists of NPY-Y1: cell-based high-throughput dose response assay for agonists of NPY-Y2. Format: functional.

The test system of assay [9] is HEK293. Kind of assay: Fluorescence-based counterscreen for potentiators or agonists of NPY-Y1: cell-based high-throughput dose response assay for inhibitors of cyclic nucleotide gated ion channel (CNGC) activity. In this assay, the parental HEK293 cell line transfected with a cyclic-nucleotide gated ion channel (CNGC)-based cAMP sensor is used to measure inhibition of isoproterenol-induced CNGC …. Format: functional. To be noted: Homo sapiens.

T1 sequence (Q00975 whole entry): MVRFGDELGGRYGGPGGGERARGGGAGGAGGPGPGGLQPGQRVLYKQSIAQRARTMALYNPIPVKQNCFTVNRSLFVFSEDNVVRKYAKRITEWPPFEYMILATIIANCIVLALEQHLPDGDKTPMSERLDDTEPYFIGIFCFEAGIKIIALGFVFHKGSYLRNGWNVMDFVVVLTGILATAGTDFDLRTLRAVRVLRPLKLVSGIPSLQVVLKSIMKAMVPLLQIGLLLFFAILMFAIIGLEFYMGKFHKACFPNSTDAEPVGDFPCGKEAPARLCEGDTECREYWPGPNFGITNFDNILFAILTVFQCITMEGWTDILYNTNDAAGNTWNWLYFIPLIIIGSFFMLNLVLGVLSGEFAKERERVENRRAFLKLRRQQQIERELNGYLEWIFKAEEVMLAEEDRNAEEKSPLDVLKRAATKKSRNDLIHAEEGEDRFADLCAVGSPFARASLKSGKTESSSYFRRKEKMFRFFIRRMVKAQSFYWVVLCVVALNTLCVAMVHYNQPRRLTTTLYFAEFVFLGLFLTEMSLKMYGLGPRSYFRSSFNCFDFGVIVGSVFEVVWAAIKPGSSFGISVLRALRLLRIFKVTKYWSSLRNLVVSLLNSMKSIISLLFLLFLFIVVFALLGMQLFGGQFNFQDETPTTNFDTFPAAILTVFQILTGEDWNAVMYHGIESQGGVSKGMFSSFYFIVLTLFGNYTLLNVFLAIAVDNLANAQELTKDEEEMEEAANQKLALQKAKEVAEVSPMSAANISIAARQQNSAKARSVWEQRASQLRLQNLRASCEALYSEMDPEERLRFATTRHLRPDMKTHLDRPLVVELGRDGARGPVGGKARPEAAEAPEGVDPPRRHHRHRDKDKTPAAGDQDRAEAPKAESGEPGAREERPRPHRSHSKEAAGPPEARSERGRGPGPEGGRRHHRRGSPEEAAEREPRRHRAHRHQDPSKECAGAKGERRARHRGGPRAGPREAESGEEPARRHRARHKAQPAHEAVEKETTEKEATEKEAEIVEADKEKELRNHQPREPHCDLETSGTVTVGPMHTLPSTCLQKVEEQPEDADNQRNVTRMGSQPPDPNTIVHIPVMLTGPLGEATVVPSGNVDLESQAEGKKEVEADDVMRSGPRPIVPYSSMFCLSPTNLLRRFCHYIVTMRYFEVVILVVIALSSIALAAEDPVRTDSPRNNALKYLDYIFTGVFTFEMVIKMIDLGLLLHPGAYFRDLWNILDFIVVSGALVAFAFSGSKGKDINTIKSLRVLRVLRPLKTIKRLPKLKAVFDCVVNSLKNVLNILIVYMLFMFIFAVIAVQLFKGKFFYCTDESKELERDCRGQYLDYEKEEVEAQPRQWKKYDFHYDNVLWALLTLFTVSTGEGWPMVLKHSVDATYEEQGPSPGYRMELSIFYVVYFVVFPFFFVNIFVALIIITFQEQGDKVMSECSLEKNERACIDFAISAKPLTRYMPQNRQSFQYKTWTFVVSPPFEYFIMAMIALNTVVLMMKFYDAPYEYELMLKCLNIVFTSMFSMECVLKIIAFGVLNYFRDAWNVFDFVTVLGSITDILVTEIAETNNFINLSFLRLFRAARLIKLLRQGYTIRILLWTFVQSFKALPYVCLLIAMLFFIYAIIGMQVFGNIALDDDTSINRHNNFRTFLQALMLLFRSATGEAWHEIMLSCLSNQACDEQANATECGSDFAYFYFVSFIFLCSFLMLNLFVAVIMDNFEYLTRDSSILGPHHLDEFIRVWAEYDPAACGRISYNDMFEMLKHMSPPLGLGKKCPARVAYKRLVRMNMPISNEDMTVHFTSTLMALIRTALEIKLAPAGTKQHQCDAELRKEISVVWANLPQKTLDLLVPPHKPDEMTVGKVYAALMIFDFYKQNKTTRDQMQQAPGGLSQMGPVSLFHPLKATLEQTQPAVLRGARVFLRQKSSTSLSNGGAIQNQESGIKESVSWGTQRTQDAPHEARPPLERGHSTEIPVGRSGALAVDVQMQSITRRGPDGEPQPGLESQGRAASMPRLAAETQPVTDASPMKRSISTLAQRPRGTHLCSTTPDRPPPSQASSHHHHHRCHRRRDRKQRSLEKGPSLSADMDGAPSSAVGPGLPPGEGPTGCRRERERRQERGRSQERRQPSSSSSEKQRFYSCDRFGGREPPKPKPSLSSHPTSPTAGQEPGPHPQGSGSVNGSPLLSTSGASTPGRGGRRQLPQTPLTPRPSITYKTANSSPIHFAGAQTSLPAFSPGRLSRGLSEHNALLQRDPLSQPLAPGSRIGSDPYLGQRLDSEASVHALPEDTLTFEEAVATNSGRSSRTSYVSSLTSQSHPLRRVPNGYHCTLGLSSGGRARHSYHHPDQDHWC
T1 sequence (Q02410 whole entry): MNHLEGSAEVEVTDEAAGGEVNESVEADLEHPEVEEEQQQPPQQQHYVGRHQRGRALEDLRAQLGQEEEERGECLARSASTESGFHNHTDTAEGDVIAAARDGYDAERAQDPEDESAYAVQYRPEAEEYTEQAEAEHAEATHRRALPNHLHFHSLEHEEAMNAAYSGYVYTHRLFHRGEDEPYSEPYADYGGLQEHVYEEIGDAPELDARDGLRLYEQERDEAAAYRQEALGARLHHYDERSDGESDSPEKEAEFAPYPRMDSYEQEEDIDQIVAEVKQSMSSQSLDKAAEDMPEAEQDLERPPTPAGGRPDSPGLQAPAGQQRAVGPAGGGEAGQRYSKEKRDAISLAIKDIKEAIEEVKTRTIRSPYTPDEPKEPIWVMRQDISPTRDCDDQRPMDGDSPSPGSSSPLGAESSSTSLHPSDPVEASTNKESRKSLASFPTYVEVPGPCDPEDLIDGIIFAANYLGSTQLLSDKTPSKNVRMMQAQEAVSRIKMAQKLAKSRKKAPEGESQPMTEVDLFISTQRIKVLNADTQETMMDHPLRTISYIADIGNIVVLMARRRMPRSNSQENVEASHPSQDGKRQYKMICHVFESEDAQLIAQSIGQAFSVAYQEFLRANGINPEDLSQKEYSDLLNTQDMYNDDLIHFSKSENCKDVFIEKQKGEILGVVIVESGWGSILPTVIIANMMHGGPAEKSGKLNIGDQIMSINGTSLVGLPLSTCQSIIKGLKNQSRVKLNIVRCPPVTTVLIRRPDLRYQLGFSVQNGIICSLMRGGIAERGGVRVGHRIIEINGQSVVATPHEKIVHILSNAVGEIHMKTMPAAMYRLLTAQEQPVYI
Sequence of Protein-tyrosine kinase 2-beta (Q14289 whole entry): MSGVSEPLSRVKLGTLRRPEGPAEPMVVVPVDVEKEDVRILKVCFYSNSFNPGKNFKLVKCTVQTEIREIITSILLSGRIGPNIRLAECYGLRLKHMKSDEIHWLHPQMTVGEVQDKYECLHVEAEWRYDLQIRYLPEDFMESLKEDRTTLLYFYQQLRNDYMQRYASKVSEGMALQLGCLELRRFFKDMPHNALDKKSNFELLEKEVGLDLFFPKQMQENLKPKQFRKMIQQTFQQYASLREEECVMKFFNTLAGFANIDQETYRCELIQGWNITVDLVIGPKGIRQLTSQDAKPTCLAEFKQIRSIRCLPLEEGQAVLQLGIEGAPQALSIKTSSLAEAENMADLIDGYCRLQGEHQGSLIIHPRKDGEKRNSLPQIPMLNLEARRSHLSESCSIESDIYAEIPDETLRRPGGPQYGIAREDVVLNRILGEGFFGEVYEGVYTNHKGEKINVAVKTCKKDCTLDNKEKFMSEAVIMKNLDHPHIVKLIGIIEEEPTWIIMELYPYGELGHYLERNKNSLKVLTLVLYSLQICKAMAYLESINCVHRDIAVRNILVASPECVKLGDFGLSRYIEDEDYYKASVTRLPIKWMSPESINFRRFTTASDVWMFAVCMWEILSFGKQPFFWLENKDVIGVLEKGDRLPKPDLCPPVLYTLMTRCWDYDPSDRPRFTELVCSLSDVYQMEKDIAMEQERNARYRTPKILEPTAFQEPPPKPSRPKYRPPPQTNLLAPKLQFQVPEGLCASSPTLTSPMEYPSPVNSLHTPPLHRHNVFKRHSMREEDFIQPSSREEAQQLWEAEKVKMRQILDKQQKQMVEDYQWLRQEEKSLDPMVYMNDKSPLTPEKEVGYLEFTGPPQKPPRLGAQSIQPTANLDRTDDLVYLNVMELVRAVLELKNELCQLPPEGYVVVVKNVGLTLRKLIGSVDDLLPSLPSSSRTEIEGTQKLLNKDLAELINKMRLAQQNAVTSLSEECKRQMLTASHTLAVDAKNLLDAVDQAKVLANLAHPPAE

Regarding `Cc1c(N2C(=O)c3ccc4c5c(ccc(c35)C2=O)CC4)c(=O)n(-c2ccccc2)n1C`, the IC50 in assay [1] was 5.83 µM (active); in [2], 15.7 µM (active); in [3] it was 2.27 µM (active); in assay [4] it was > 39.8 µM (not active); in [5], > 49.8 µM (not active); in assay [6] it was > 39.8 µM (not active).
As to `O=C(Nc1ccncc1)c1ccc2c(c1)C(=O)N(C1CCCCC1)C2=O`, the EC50 in assay [7] and in assay [8] was > 35.4 µM (not active) in each case. In addition, the IC50 in [9] is listed as > 35.4 µM (not active).

The values are drawn from ChEMBL document CHEMBL1201862, “PubChem BioAssay data set” (2004).
